Results as given in US9714247B2, “Multiple kinase pathway inhibitors” (Mannkind Corporation, priority 2012, dated 2017).
Like-named read-outs stand apart in the source and are kept apart here.

How the values were obtained:
DoHH2 [1] = assay: CellTiter-Glo proliferation/viability assay; type: cell-based, human
[2] = tested on: PLCγ2 phosphorylation in Ramos cells; assay: PLCγ2 phosphorylation by flow cytometry; type: cell-based, human; conditions: Homo sapiens, flow cytometry; for inhibition at 0.3 µM: anti-phospho PLCγ2 (Tyr759), read-out: pPLCγ % inhibition; for EC50: anti-phospho PLCγ2 (Tyr1217), four concentrations, read-out: Inhibition of phosphorylation of PLC-γ2 EC50
Summary of the method: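 Ramos cells starved 18 h in 1% FBS, pretreated with inhibitor 2 h, then stimulated with anti-IgM (10 ug/ml final) plus 3.3 mM H2O2 for 2 min, then cross-linking F(ab) (10 ug/ml) plus H2O2 for 8 min. Fixed, permeabilized cells stained with PE anti-phospho-PLCγ2 (Tyr1217 or Tyr759), dead cells gated out; ED50 from geometric mean fluorescence over four inhibitor concentrations.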

[3] = tested on: phosphorylation of SFKs in Ramos cells; assay: SFK phosphorylation (Tyr 416) by flow cytometry; type: cell-based, human; conditions: Homo sapiens, 0.3 uM, flow cytometry, SFK phosphorylated at Tyr 416, read-out: pSRC % inhibition
Description: Ramos cell lysates from stimulated and unstimulated cells were analyzed for the levels of phosphorylated SRC family members. As described in Example 82 (above), cells were pretreated for 2 hours with an amino naphthyridinones and then stimulated with anti-IgM antibody and H2O2, protein lysates were prepared, quantified and used for Western blotting. A commercially available antibody that detects Src phosphorylated at Tyr 416 (Cell Signalling) and may cross-react with other Src family members such as Lyn, Fyn, Lck, Yes and Hck when phosphorylated at equivalent sites was used for Western blot analysis. The molecular weights of SFK family members are quite similar (in the 55-60 kDa range) and different family members cannot be resolved by the conditions used for the Western blot. […] The procedure can be similarly adapted for flow cytometric analysis as with the PLC-γ2 assay in Example 82. Ramos cells were incubated with Compound 1 for 2 hrs in RPMI media with 5% FBS prior to stimulation stimulated with H2O2/anti-IgM/F(Ab) for 10 minutes. Cells were evaluated by FACS analysis using anti-pSRC antibody and FITC-conjugated goat anti-rabbit secondary antibody following overnight storage at 4° C. in BD perm/wash buffer.
Ramos cells were prepared for flow cytometry analysis as described in example 82, and stained with a commercially available antibody that detects SFK phosphorylated at Tyr 416, followed by Alexa Fluor 488 conjugated secondary antibody. […] Thus amino naphthyridinones are useful in the inhibition of the phosphorylation of SFKs.

Src [4] = biological target: T1, Src (Homo sapiens (Human), UniProt P12931); assay: biochemical
T1 sequence (P12931 whole entry, looked up): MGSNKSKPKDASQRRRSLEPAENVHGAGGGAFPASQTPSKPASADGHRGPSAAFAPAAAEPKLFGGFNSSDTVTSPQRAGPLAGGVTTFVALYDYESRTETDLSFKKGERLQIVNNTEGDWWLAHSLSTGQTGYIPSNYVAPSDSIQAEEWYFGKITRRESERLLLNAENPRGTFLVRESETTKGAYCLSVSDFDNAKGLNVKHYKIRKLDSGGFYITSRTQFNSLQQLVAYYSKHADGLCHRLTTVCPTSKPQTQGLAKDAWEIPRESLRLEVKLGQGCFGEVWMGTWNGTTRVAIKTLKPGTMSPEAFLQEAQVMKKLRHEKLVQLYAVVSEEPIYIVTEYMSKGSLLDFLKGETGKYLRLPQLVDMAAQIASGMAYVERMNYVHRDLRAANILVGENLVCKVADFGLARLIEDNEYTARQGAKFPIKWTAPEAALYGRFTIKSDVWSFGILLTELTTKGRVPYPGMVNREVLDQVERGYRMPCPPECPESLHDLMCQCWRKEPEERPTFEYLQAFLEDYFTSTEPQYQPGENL

DoHH2 cells = conditions: treated 24 hours
DoHH2 [5] = assay: Apoptosis by flow cytometry (Annexin V / 7AAD); type: cell-based, human; conditions: Table 6; for Percent Apoptosis at 2 uM: DOHH2, 2 uM; for Percent Apoptosis at 5 uM: DOHH2, 5 uM
Text: Activation of Tec family kinases including BTK, and/or Src kinase family members, regulates cell survival and cell death in normal B cells, lymphomas, and solid tumors. Apoptosis is a programmed cell death characterized by specific changes in cell morphology. […] Staurosporine was used as a positive control for apoptosis. […] Table 6 illustrates that several amino naphthyridinones induce significant apoptosis in DoHH2 cells.

Lyn [6] = biological target: T2, Lyn (Homo sapiens (Human), UniProt P07948); assay: biochemical
T2 sequence (P07948 whole entry): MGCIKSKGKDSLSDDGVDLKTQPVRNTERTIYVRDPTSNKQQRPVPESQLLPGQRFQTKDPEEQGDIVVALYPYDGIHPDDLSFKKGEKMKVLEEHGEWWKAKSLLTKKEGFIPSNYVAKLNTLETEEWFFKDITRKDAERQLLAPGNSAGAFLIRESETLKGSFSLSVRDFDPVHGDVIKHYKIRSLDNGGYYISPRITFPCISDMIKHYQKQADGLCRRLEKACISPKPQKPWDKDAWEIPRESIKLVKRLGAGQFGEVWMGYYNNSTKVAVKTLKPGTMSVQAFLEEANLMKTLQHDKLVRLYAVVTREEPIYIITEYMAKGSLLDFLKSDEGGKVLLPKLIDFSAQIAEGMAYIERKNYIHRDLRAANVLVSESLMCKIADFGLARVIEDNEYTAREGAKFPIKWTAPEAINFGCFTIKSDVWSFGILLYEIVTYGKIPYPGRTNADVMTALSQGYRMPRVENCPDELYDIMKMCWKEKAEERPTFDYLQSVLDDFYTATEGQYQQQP

Ramos = assay: CellTiter-Glo proliferation/viability assay; type: cell-based, human; conditions: read-out: Ramos EC50
Src [7] = biological target: T1, Src; conditions: read-out: Src IC50
RBL-2H3 cells = assay: Degranulation (β-hexosaminidase release) colorimetric assay; type: cell-based; conditions: Rattus norvegicus, RBL-2H3, IgE / DNP-BSA
Text: Crosslinking of IgE receptors leads to induction of intracellular signal transduction pathways and degranulation of mast cells and basophils leading to the release of histamine, serotonin and cytokines that constitutes an allergic reaction. […] One of the factors secreted on induction of degranulation is β-hexosaminidase. A colorimetric assay using 4-nitrophenyl N-acetyl-3-D-glucosaminide (Sigma-Aldrich) as a substrate was used to estimate the amount of enzyme secreted upon degranulation. In brief, RBL-2H3 (ATCC # CRL 2256) cells were plated overnight in the presence of IgE (monoclonal anti-dinitrophenyl antibody from Sigma-Aldrich). The next day, cells were treated with compounds in cell culture media, washed and treated with DNP-BSA for 1 hour (Sigma-Aldrich) in Tyrodes's buffer to induce degranulation. The level of 3-hexosaminidase was analyzed in cell-free supernates and cell lysates and the amount of β-hexosaminidase released was calculated. EC50 values were generated using varying concentrations of inhibitors. […] Thus amino naphthyridinones can be used to inhibit immunologic functions such as degranulation.

Lyn [8] = biological target: T2, Lyn; conditions: read-out: Lyn IC50
BTK = BTK (Homo sapiens (Human), UniProt Q06187)
Sequence of BTK (Q06187 whole entry): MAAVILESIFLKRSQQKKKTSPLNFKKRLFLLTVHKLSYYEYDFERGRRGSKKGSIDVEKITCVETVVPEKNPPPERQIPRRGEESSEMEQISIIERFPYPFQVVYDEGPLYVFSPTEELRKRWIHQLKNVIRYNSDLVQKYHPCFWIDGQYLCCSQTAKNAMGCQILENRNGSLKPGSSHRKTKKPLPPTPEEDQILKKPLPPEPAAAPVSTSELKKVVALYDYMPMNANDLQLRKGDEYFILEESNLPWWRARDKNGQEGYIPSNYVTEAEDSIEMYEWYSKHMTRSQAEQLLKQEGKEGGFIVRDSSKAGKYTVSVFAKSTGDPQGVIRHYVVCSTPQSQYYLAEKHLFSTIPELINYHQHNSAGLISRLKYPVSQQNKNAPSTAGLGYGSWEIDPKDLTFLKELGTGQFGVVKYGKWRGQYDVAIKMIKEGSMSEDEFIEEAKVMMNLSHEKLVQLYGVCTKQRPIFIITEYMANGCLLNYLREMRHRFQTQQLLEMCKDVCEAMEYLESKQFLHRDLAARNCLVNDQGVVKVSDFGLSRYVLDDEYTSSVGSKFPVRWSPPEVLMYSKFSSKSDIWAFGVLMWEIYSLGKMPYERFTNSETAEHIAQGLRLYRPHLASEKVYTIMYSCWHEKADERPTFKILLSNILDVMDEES

[9] = Homo sapiens, DOHH-2, 48 hrs, read-out: DoHH2 EC50
[10] = Homo sapiens, DOHH-2, Table 4, DoHH2 cells, read-out: EC50 (Proliferation)

Row | Structure (SMILES) | EC50 (DoHH2 [1]; [9]) | EC50 (DoHH2 [1]; [10]) | inhibition at 0.3 µM [2] | EC50 [2] | inhibition at 0.3 µM [3] | IC50 (Src [4]) | Effect on Cell Cycle (DoHH2 cells) | Percent Apoptosis at 2 uM (DoHH2 [5]) | Percent Apoptosis at 5 uM (DoHH2 [5]) | IC50 (Lyn [6]) | EC50 (Ramos; Homo sapiens, Ramos, 48 h) | IC50 (Src [7]) | EC50 (RBL-2H3 cells) | IC50 (Lyn [8]) | IC50 (BTK; read-out: BTK IC50) | EC50 (Ramos; Homo sapiens, Ramos, 48 hrs) | IC50 (Lyn [6]; Lyn IC50) | EC50 (DoHH2 [1]; 48 hrs, read-out: DoHH2 EC50) | EC50 (Ramos; 48 hrs) | IC50 (BTK)
1 | CCN(CC)CCOc1ccc(Nc2cc3c(cn2)cc(-c2ccccc2)c(=O)n3C2CCC2)nc1 [Compound 25, 1-cyclobutyl-7-(5-(2-(diethylamino)ethoxy)pyridin-2-ylamino)-3-phenyl-1,6-naphthyridin-2(1H)-one] | < 1000 nM | < 1000 nM | 61% | 280 nM | 26% | 1000 to 5000 nM | G1 Arrest | 26.94% | 20.29% | 1000 to 5000 nM | 1000 to 10000 nM | – | – | – | – | – | – | – | – | –
2 | O=c1c(-c2c(F)cccc2F)cc2cnc(Nc3ccc(F)cn3)cc2n1CCN1CCOCC1 [Compound 133, 3-(2,6-difluorophenyl)-7-((5-fluoropyridin-2-yl)amino)-1-(2-morpholinoethyl)-1,6-naphthyridin-2(1H)-one] | < 1000 nM | – | – | – | – | – | – | – | – | – | – | < 100 nM | 5490 nM | < 100 nM | < 100 nM | > 10000 nM | – | – | – | –
3 | CCN(CC)CCOc1ccc(Nc2cc3c(cn2)cc(-c2ccccc2)c(=O)n3C(C)C)nc1 [Compound 22, 7-(5-(2-(diethylamino)ethoxy)pyridin-2-ylamino)-1-isopropyl-3-phenyl-1,6-naphthyridin-2(1H)-one] | < 1000 nM | < 1000 nM | – | – | – | 100 to 1000 nM | G1 Arrest | 21.68% | 25.8% | – | 1000 to 10000 nM | – | – | – | < 100 nM | – | 100 to 1000 nM | – | – | –
4 | CCN(CC)CCOc1ccc(Nc2cc3c(cn2)cc(-c2ccccc2)c(=O)n3CCOC)nc1 [Compound 24, 7-(5-(2-(diethylamino)ethoxy)pyridin-2-ylamino)-1-(2-methoxyethyl)-3-phenyl-1,6-naphthyridin-2(1H)-one] | < 1000 nM | – | – | – | – | – | – | 34.76% | 46.4% | – | – | < 100 nM | – | < 100 nM | < 100 nM | 1000 to 10000 nM | – | – | – | –
5 | O=c1c(-c2c(F)cccc2F)cc2cnc(Nc3ccc(F)cn3)cc2n1C1CCOC1 (single isomer, unassigned) [Compound 142, (R or S)-3-(2,6-difluorophenyl)-7-((5-fluoropyridin-2-yl)amino)-1-(tetrahydrofuran-3-yl)-1,6-naphthyridin-2(1H)-one] | – | – | – | – | – | – | – | – | – | – | – | < 100 nM | > 5000 nM | – | – | – | < 100 nM | < 1000 nM | 1000 to 10000 nM | –
6 | CCN(CC)CCOc1ccc(Nc2cc3c(cn2)cc(-c2ccccc2)c(=O)n3C2CC2)nc1 [Compound 27, 1-cyclopropyl-7-(5-(2-(diethylamino)ethoxy)pyridin-2-ylamino)-3-phenyl-1,6-naphthyridin-2(1H)-one] | < 1000 nM | < 1000 nM | – | – | – | 100 to 1000 nM | G1 Arrest | 37.05% | 54.19% | 100 to 1000 nM | – | – | – | – | < 100 nM | 1000 to 10000 nM | – | – | – | –
7 | CCn1c(=O)c(-c2c(F)cccc2F)cc2cnc(Nc3ccc(F)cn3)cc21 [Compound 75, 3-(2,6-difluorophenyl)-1-ethyl-7-((5-fluoropyridin-2-yl)amino)-1,6-naphthyri-din-2 (1H)-one] | < 1000 nM | < 1000 nM | – | – | – | 100 to 1000 nM | G1 Arrest | 35.66% | 39.47% | – | 1000 to 10000 nM | – | – | < 100 nM | < 100 nM | – | – | – | – | –
8 | CN1CC[C@@H](n2c(=O)c(-c3c(F)cccc3F)cc3cnc(Nc4ccc(F)cn4)cc32)C1 [Compound 152, (R)-3-(2,6-difluorophenyl)-7-((5-fluoropyridin-2-yl)amino)-1-(1-methylpyrrolidin-3-yl)-1,6-naphthyridin-2(1H)-one] | < 1000 nM | – | – | – | – | 100 to 1000 nM | – | – | – | – | > 10000 nM | – | > 5000 nM | – | – | – | 100 to 1000 nM | – | – | –
9 | CCN(CC)CCOc1ccc(Nc2cc3c(cn2)cc(C(C)C)c(=O)n3C(C)C)nc1 [Compound 34, 7-[5-(2-Diethylamino-ethoxy)-pyridin-2-ylamino]-1,3-diisopropyl-1H-[1,6]naphthyridin-2-one] | – | – | – | – | – | – | No Arrest | 19.54% | 46.27% | – | 1000 to 10000 nM | < 100 nM | – | < 100 nM | – | – | – | – | – | –
10 | CCN(CC)CCOc1ccc(Nc2cc3c(cn2)cc(-c2ccccc2)c(=O)n3C2CCN(C)CC2)nc1 [Compound 16, 7-((5-(2-(diethylamino)ethoxy)pyridin-2-yl)amino)-1-(1-methylpiperidin-4-yl)-3-phenyl-1,6-naphthyridin-2(1H)-one] | < 1000 nM | < 1000 nM | 46% | – | -1% | – | G1 Arrest | 32.57% | 58.99% | 100 to 1000 nM | – | < 100 nM | – | 100 to 1000 nM | 100 to 1000 nM | 1000 to 10000 nM | – | – | – | 100 to 1000 nM
11 | CCn1c(=O)c(-c2ccccc2)cc2cnc(Nc3ccc(N4CCN(C)CC4)cn3)cc21 [Compound 43, 1-Ethyl-7-[5-(4-methyl-piperazin-1-yl)-pyridin-2-ylamino]-3-phenyl-1H-[1,6]naphthyridin-2-one] | < 1000 nM | – | – | 190 nM | – | – | – | 27.26% | 29.38% | – | – | < 100 nM | – | < 100 nM | – | 1000 to 10000 nM | – | – | – | –
